According to US8003630B2, “Combinatorial therapies for the treatment of neoplasias using the opioid growth factor receptor” (The Penn State Research Foundation, priority 2004, dated 2011):

Legend:
[1] = system: SCC-1 SCCHN cells; conditions: athymic nude, mouse, in vivo
Protocol: Tumor dimensions were recorded every day beginning on the day that the tumors were considered measurable.

[2] = Plasma levels of OGF by radioimmunoassay, SCC-1 tumor mice; format: in vivo, nude mice; conditions: at termination
Protocol: Plasma samples were assayed in duplicate.

[3] = system: MIA PaCa-2 cells; experiment: Growth assays of MIA PaCa-2 cells (MTS assay or cell counting), Example 7; format: cell-based, human; conditions: MIA PaCa-2; 96 hr (48 hr after reversal)
Protocol: (§1) MIA PaCa-2 and PANC-1 human pancreatic adenocarcinoma cell lines were purchased from the American Type Culture Collection (Manasass, Va.). MIA PaCa-2 cells were derived from an undifferentiated epithelial carcinoma occurring in the body and tail of the pancreas in a person. The PANC-1 cells were derived from an undifferentiated carcinoma from the head of the pancreas in a person. MIA PaCa-2 and PANC-1 cells were grown in Dulbecco's MEM (modified) media; media was supplemented with 10% fetal calf serum, 1.2% sodium bicarbonate, and antibiotics (5,000 Units/ml penicillin, 5 mg/ml streptomycin, 10 mg/ml neomycin), and the cells were maintained in a humidified atmosphere of 7% CO2/93% air at 37° C.
MIA PaCa-2 cells were seeded at equivalent amounts into either 75 cm^2 flasks, 6-well plates, or 96-well plates (Falcon) and counted 24 hr later to determine plating efficiency. Growth assays for PANC-1 cells were conducted in 6-well plates (Falcon). Compounds or sterile water were added beginning 24 hr after seeding (=0 hr), and both media and compounds were replaced daily. All drugs were prepared in sterile water and dilutions represent final concentrations of the compounds.
(§2) Cell number was recorded either by using a mitogenic bioassay, the MTS assay (Cell Titer 96 One Solution, Promega, Madison, Wis.), and measuring absorbency after 4 hr on a Biorad (Model 3550) plate reader at 490 nm, or by counting cells. For manual counts, cells were harvested with a solution of 0.25% trypsin/0.53 mM EDTA, centrif uiged, and counted with a hemacytometer. Cell viability was determined by trypan blue staining. At least two aliquots per flask or 4-10 wells/treatment were counted at each time.

[4] = system: advanced unresectable pancreatic adenocarcinoma; conditions: some patients; cited from earlier work
[5] = system: MiaPaCa-2 cells; experiment: OGF/gemcitabine treatment in athymic nude mouse model (Example 5); format: in vivo, athymic nude mice
Text: To examine the effectiveness of the combined OGF/gemcitabine treatments in vivo, an athymic nude mouse model was used.

[6] = system: PANC-1 cells; experiment: Growth assay of PANC-1 cells in 6-well plates; format: cell-based, human; conditions: 72 hr, OGF 10^−6 M and/or gemcitabine 10^−8 M
Protocol: as §1
MIA PaCa-2 cells were seeded at equivalent amounts into either 75 cm^2 flasks, 6-well plates, or 96-well plates (Falcon) and counted 24 hr later to determine plating efficiency. […]
as §2

Compound | mice still alive on termination day, % of the group ([1]; 50 day) | day on which mice began dying ([1]; 50 days) | OGF levels in plasma versus control mice with tumors [2] | difference in cell number between reversal group and group continuing drug exposure [3] | longest survival of patients [4] | mice with tumors ([5]; day 16 after tumor cell inoculation) | tumors smaller than control mice, reduction ([5]; from the 6th timepoint (12th day of measurable tumor)) | fewer cells than in control cultures [6]
CC(=O)O[C@H]1C(=O)[C@@]2(C)[C@H]([C@H](OC(=O)c3ccccc3)[C@]3(O)C[C@H](OC(=O)[C@H](O)[C@@H](NC(=O)c4ccccc4)c4ccccc4)C(C)=C1C3(C)C)[C@]1(OC(C)=O)CO[C@@H]1C[C@@H]2O [paclitaxel] | 8% | 19 days | No differences |  |  |  |  | 
[Met^5]-enkephalin [OGF] |  |  |  | 16% | ≤ 23 months | all mice | 29.9-40.7% | 31%
